Test results published in US20180252712A1, “RECEPTOR FOR NOROVIRUS AND USES THEREOF” (priority 2017, published 2018).

Columns and labels:
MNoV^CW3 = assay: CRISPR screen in BV2-Cas9 cells, sgRNA enrichment after MNoV^CW3 infection; type: cell-based, murine norovirus; conditions: for log2 fold enrichment after MNV infection relative to mock infected cells, CW3 MOI 0.05: MNoV^CW3, MOI 0.05, ten days post-infection; for log2 fold enrichment after MNV infection relative to mock infected cells, CW3 MOI 5: MNoV^CW3, MOI 5, ten days post-infection
Description: (§1) BV2 cells were transduced with pXPR_101 (Addgene plasmid 52962) and selected with blasticidin for eleven days. Cas9 activity was assessed by transducing parental BV2 or BV2-Cas9 cells with pXPR_011 (Addgene plasmid 59702), expresses eGFP and a sgRNA targeting eGFP at an MOI<1 [1]. Cells were transduced for 2 days and subsequently, selected for five days with puromycin and the frequency of eGFP expression was assessed by flow cytometry. The mouse ASIAGO sgRNA CRISPR library contains six independent genome wide pools which each pool containing a unique sgRNA targeting each of 20,077 mouse genes. Four ASIAGO pools were independently used to generate the BV2 library (Doench et al submitted). Each ASIAGO pool was delivered by lentiviral transduction of 5×10^7 BV2 cells at an MOI ˜0.2. This equates to 1×10^7 transduced cells, which is sufficient for the integration of each sgRNA 500 independent times. Two days post transduction, puromycin was added to the media and transduced cells were selected for five days. For each experimental condition, 1×10^7 BV2-Cas9 cells containing sgRNAs were seeded in a T175 tissue culture flask. Cells were infected with either MNoV^CW3 or MNoV^CR6 at MOls of 0.05 and 5. Mock infected cells were harvested 48 hrs after seeding and served as a reference for sgRNA enrichment analysis. Ten days post-infection genomic DNA was isolated from surviving cells using a Qiamp DNA mini kit according to manufacturer instructions (Qiagen).
(§2) Illumina sequencing and STARS analysis was performed as described previously (Doench et al, in press). Briefly, genomic DNA was aliquoted into multiple wells of a 96-well plate with up to 10 μg of DNA in 50 μl total volume. A PCR mastermix consisting of ExTaq DNA polymerase (Clontech), ExTaq buffer, dNTP, P5 stagger primer, and water was generated. 40 μl of PCR master mix, and 10 μl of a barcoded primer was added to each well containing 50 μl of DNA. Samples were PCR amplified as follows: 95° C. for 1 min., followed by 28 cycles of 94° C. for 30 sec., 52.5° C. for 30 sec., 72° C. for 30 sec. with a final 10 min. at 72° C. PCR product was purified with Agencourt AMPure XP SPRI beads according to the manufacture's protocol (Beckman Coluter). Samples were sequenced on an Illumina HiSeq 2000. Barcodes in the P7 primer were deconvuluted and the sgRNA sequence was mapped to a reference file of sgRNAs in the ASIAGO library. To normalize for different numbers of reads per condition, read counts per sgRNA were normalized to 10^7 total reads per sample. This normalized value was then log-2 transformed. sgRNAs that were not sequenced were arbitrarily assigned a read count of 1. sgRNA frequencies were then analyzed using STARS software, which is available at broadinstitute.org/rnai/public/software/index (Doench et al, in press). STARS computes a score for each gene of rank-ordered sgRNA hits that was above […] of total sequenced sgRNAs. A STAR score was only assigned to genes that scored above this threshold in at least two of four independent genome wide pools.

MNoV^CR6 = assay: CRISPR screen in BV2-Cas9 cells, sgRNA enrichment after MNoV^CR6 infection; type: cell-based, murine norovirus; conditions: for log2 fold enrichment after MNV infection relative to mock infected cells, CR6 MOI 0.05: MNoV^CR6, MOI 0.05, ten days post-infection; for log2 fold enrichment after MNV infection relative to mock infected cells, CR6 MOI 5: MNoV^CR6, MOI 5, ten days post-infection
Description: as §1, §2

Substance	log2 fold enrichment after MNV infection relative to mock infected cells, CW3 MOI 0.05 (MNoV^CW3)	log2 fold enrichment after MNV infection relative to mock infected cells, CW3 MOI 5 (MNoV^CW3)	log2 fold enrichment after MNV infection relative to mock infected cells, CR6 MOI 0.05 (MNoV^CR6)	log2 fold enrichment after MNV infection relative to mock infected cells, CR6 MOI 5 (MNoV^CR6)
ACAGGTCCAGAGGAGGTGAG: sgRNA used in screen, matches CD300ld, CD300lf, CD300lh (listed as DNA, chemistry not given here)	0.0 log2 fold enrichment	13.0 log2 fold enrichment	0.0 log2 fold enrichment	13.1 log2 fold enrichment
ACGGAAGTGAGAAAGAAAAG: sgRNA used in screen, matches CD300le (listed as DNA, chemistry not given here)	−6.6 log2 fold enrichment	−6.6 log2 fold enrichment	−6.6 log2 fold enrichment	−6.6 log2 fold enrichment
CATAGGTCACTGTAAAGGTG: sgRNA used in screen, matches CD300la (listed as DNA, chemistry not given here)	−7.2 log2 fold enrichment	−7.2 log2 fold enrichment	−7.2 log2 fold enrichment	−7.2 log2 fold enrichment
CCTGTGATCCAGAAGAGAAA: sgRNA used in screen, matches CD300lf (listed as DNA, chemistry not given here)	9.6 log2 fold enrichment	9.6 log2 fold enrichment	9.6 log2 fold enrichment	9.6 log2 fold enrichment
CGTAGCCAGACACAGAGCCA: sgRNA used in screen, matches CD300le (listed as DNA, chemistry not given here)	−5.9 log2 fold enrichment	−5.5 log2 fold enrichment	−5.8 log2 fold enrichment	−5.9 log2 fold enrichment
CTACGCAAATCAGGACCAGG: sgRNA used in screen, matches CD300lg (listed as DNA, chemistry not given here)	−6.4 log2 fold enrichment	−6.4 log2 fold enrichment	−6.4 log2 fold enrichment	−6.4 log2 fold enrichment
CTAGCTACTACTCTGATAAC: sgRNA used in screen, matches CD300lf (listed as DNA, chemistry not given here)	0.0 log2 fold enrichment	11.0 log2 fold enrichment	0.0 log2 fold enrichment	9.8 log2 fold enrichment
CTCCACGTAGGTACACCGCA: sgRNA used in screen, matches CD300lg (listed as DNA, chemistry not given here)	−5.8 log2 fold enrichment	−5.3 log2 fold enrichment	−5.6 log2 fold enrichment	−5.8 log2 fold enrichment
GAGTGTGTCATGTCGATATG: sgRNA used in screen, matches CD300la (listed as DNA, chemistry not given here)	−6.2 log2 fold enrichment	−6.2 log2 fold enrichment	−6.2 log2 fold enrichment	−6.2 log2 fold enrichment
GCAGCAAATCCAAATCTCAG: sgRNA used in screen, matches CD300lb (listed as DNA, chemistry not given here)	−5.8 log2 fold enrichment	−5.8 log2 fold enrichment	−5.8 log2 fold enrichment	−5.8 log2 fold enrichment
GCCCTTGCTACTTACCTGGG: sgRNA used in screen, matches CD300ld (listed as DNA, chemistry not given here)	0.0 log2 fold enrichment	−5.5 log2 fold enrichment	0.0 log2 fold enrichment	−5.5 log2 fold enrichment
GCTACTTACCTGGGAGGAAA: sgRNA used in screen, matches CD300lh (listed as DNA, chemistry not given here)	−5.9 log2 fold enrichment	−5.9 log2 fold enrichment	−5.9 log2 fold enrichment	−5.9 log2 fold enrichment
GGAAGAGGATGAGCAGAGCA: sgRNA used in screen, no identical CD300 match marked (listed as DNA, chemistry not given here)	−6.4 log2 fold enrichment	−6.4 log2 fold enrichment	−6.4 log2 fold enrichment	−6.4 log2 fold enrichment
GGATCCAGTCACAGGTCCAG: sgRNA used in screen, matches CD300lf, CD300lh (listed as DNA, chemistry not given here)	0.0 log2 fold enrichment	12.5 log2 fold enrichment	0.0 log2 fold enrichment	12.6 log2 fold enrichment
GGTCGTCCCTGATGGACACA: sgRNA used in screen, matches CD300lh (listed as DNA, chemistry not given here)	12.0 log2 fold enrichment	7.8 log2 fold enrichment	12.0 log2 fold enrichment	11.0 log2 fold enrichment
GTTACTGTGAACATTGGCCC: sgRNA used in screen, matches CD300lf (listed as DNA, chemistry not given here)	0.0 log2 fold enrichment	12.1 log2 fold enrichment	0.0 log2 fold enrichment	12.0 log2 fold enrichment
TACCACGCCACAGGACTCCA: sgRNA used in screen, matches CD300lg (listed as DNA, chemistry not given here)	0.0 log2 fold enrichment	−6.2 log2 fold enrichment	0.0 log2 fold enrichment	−6.2 log2 fold enrichment
